Data published in US10899738B2 (THE REGENTS OF THE UNIVERSITY OF MICHIGAN, priority 2016, dated 2021).

These compounds were tested against menin protein (Homo sapiens (Human), UniProt O00255) (assay: biochemical). Conditions: FP competitive binding; menin protein 4 nM, FAM-MM2 probe 2 nM.
Format: binding
Method: A fluorescence polarization (FP) competitive binding assay was used to determine the binding affinities of representative menin inhibitors. A FAM labeled fluorescent probe was designed and synthesized based on a MLL1 peptide (FAM-MM2). Equilibrium dissociation constant (Kd) value of FAM-MM2 to menin protein was determined from protein saturation experiments by monitoring the total fluorescence polarization of mixtures composed with the fluorescent probe at a fixed concentration and the protein with increasing concentrations up to full saturation. Serial dilutions of the protein were mixed with FAM-MM2 to a final volume of 200 μl in the assay buffer (PBS with 0.02% Bovine γ-Globulin and 4% DMSO. 0.01% Triton X-100 was added right before assays). Final FAM-MM2 concentration was 2 nM. Plates were incubated at room temperature for 30 minutes with gentle shaking to assure equilibrium.
The IC50, see Table 3, and Ki values of representative Compounds of the Disclosure were determined in a competitive binding experiment. Mixtures of 5 μl of the tested compounds in DMSO and 195 μl of preincubated protein/probe complex solution in the assay buffer were added into assay plates which were incubated at room temperature for 30 minutes with gentle shaking. Final concentration of the menin protein was 4 nM, and final probe concentration is 2 nM. […] FP values were measured as described above. IC50 values were determined by nonlinear regression fitting of the competition curves.

menin protein, sequence (O00255 whole entry): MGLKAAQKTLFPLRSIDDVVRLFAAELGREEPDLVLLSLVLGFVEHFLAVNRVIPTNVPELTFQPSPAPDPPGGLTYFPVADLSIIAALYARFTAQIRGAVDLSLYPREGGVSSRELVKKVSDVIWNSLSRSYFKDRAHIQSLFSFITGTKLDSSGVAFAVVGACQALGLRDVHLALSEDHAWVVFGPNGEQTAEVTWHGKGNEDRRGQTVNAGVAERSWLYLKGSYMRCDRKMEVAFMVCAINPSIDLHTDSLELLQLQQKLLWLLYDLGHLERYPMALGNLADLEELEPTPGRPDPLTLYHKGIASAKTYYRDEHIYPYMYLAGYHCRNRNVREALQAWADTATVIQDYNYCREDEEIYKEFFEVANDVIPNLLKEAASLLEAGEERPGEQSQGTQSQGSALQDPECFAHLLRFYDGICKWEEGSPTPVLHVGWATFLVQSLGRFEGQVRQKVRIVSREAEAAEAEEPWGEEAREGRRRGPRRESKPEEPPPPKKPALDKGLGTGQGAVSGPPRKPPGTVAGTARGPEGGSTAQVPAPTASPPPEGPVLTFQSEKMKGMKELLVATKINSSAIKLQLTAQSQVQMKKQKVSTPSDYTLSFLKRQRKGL

Menin Binding Affinity IC50 (μM)	Structure (SMILES)
No inhibition	c1ccc(CN2CC(C3(C4CCCC4)NCCc4ccccc43)C2)cc1 (stereo not shown) [compound 57, 1-(1-benzylazetidin-3-yl)-1-cyclopentyl-1,2,3,4-tetrahydroisoquinoline]
No inhibition	CCN1Cc2ccccc2C(C2CCCC2)(C2CCN(Cc3ccccc3Oc3ccc(S(=O)(=O)c4ccncc4)cc3)CC2)C1 (stereo not shown) [compound 162, 4-cyclopentyl-2-ethyl-4-(1-(2-(4-(pyridin-4-ylsulfonyl)phenoxy)benzyl)piperidin-4-yl)-1,2,3,4-tetrahydroisoquinoline]
No inhibition	CCN1Cc2ccccc2C(C2CCCC2)(C2CCN(S(=O)(=O)C3CN(c4ccc(C#N)cc4)C3)CC2)C1 (stereo not shown) [compound 159, 4-(3-((4-(4-cyclopentyl-2-ethyl-1,2,3,4-tetrahydroisoquinolin-4-yl)piperidin-1-yl)sulfonyl)azetidin-1-yl)benzonitrile]
No inhibition	N#Cc1ccc(OCCCN2CC(C3(C4CCCC4)c4ccccc4CCN3CCCOc3ccc(C#N)cc3)C2)cc1 (stereo not shown) [compound 61]

Same assay, conditions: FP competitive binding; menin protein 4 nM, FAM-MM2 probe 2 nM; read-out: Menin Binding Affinity IC50

Structure (SMILES)	IC50
N#Cc1ccc(NCCCN2CCC(C3(C4CCCC4)NCCc4ccccc43)CC2)cn1 (stereo not shown) [compound 59, 5-((3-(4-(1-cyclopentyl-1,2,3,4-tetrahydroisoquinolin-1-yl)piperidin-1-yl)propyl)amino)picolinonitrile]	2300 nM
CNC(=O)N[C@@H]1CCC[C@H]1C(C#N)(c1ccccc1)C1CCN(CC2CN(c3ccc(S(=O)(=O)c4ccncc4)cc3)C2)CC1 (mixture of isomers) [compound 270, rac-1-((1R,2S)-2-(cyano(phenyl)(1-((1-(4-(pyridin-4-ylsulfonyl)phenyl)azetidin-3-yl)methyl)piperidin-4-yl)methyl)cyclopentyl)-3-methylurea]	881 nM
N#Cc1ccc(OCCCN2CCC(C3(C4CCCC4)C(=O)NCc4ccccc43)CC2)cc1 (stereo not shown) [compound 24, 4-(3-(4-(4-cyclopentyl-3-oxo-1,2,3,4-tetrahydroisoquinolin-4-yl)piperidin-1-yl)propoxy)benzonitrile]	416 nM
COC(=O)N[C@H]1CCC[C@@H]1C(C#N)(c1ccccc1)C1CCN(CC2CN(c3ccc(C(F)(F)F)cc3)C2)CC1 (mixture of isomers) [compound 401, methyl rac-((1S,2R)-2-(cyano(phenyl)(1-((1-(4-(trifluoromethyl)phenyl)azetidin-3-yl)methyl)piperidin-4-yl)methyl)cyclopentyl) carbamate]	89 nM
N#Cc1ccc(OCCCN2CCC(C3(C4CCCC4)CNC(=O)c4ccccc43)CC2)cc1 (stereo not shown) [compound 21, 4-(3-(4-(4-cyclopentyl-1-oxo-1,2,3,4-tetrahydroisoquinolin-4-yl)piperidin-1-yl)propoxy)benzonitrile]	1100 nM
O=S(=O)(c1ccc(N2CC(CN3CCC(C4(C5CCCC5)COCc5ccccc54)CC3)C2)cc1)C1CC1 (stereo not shown) [compound 38, 4-(4-cyclopentylisochroman-4-yl)-1-((1-(4-(cyclopropylsulfonyl)phenyl)azetidin-3-yl)methyl)piperidine]	304 nM
O=C(CN1CCC(C2(C3CCCC3)NCCc3ccccc32)CC1)N1Cc2ccccc2C1 (stereo not shown) [compound 82, 2-(4-(1-cyclopentyl-1,2,3,4-tetrahydroisoquinolin-1-yl)piperidin-1-yl)-1-(isoindolin-2-yl)ethan-1-one]	6200 nM
N#Cc1ccc(OCCCN2CCC(C3NCCc4ccccc43)CC2)cc1 (stereo not shown) [compound 305, 4-(3-(4-(1,2,3,4-tetrahydroisoquinolin-1-yl)piperidin-1-yl)propoxy)benzonitrile]	42100 nM
CNC(=O)O[C@@H]1CCC[C@H]1C(C#N)(c1ccccc1)C1CCN(CC2CN(c3ccc(S(=O)(=O)c4ccn(C)n4)cc3)C2)CC1 (mixture of isomers) [compound 231]	68 nM
COCCCN1CCC(C2(C3CCCC3)NCCc3ccccc32)CC1 (stereo not shown) [compound 73, 1-cyclopentyl-1-(1-(3-methoxypropyl)piperidin-4-yl)-1,2,3,4-tetrahydroisoquinoline]	9900 nM
N#Cc1cc2ccc(C(=O)N3CCC(CC4(C5CCCC5)NCCc5ccccc54)CC3)cc2[nH]1 (stereo not shown) [compound 118, 6-(4-((1-cyclopentyl-1,2,3,4-tetrahydroisoquinolin-1-yl)methyl)piperidine-1-carbonyl)-1H-indole-2-carbonitrile]	21800 nM
CN(C)C(=O)N[C@@H]1CCC[C@H]1C(Cn1ccnc1)(c1ccccc1)C1CCN(CC2CN(c3ccc(S(=O)(=O)c4cnn(C)c4)cc3)C2)CC1 (mixture of isomers) [compound 377, rac-3-((1R,2S)-2-(2-(1H-imidazol-1-yl)-1-(1-((1-(4-((1-methyl-1H-pyrazol-4-yl)sulfonyl)phenyl)azetidin-3-yl)methyl)piperidin-4-yl)-1-phenylethyl)cyclopentyl)-1,1-dimethylurea]	1130 nM
CNC(=O)N[C@@H]1CCC[C@H]1C(C#N)(c1ccccc1)C1CCN(CCCOc2ccc(C#N)cc2)CC1 (mixture of isomers) [compound 318, rac-1-((1R,2S)-2-(cyano(1-(3-(4-cyanophenoxy)propyl)piperidin-4-yl)(phenyl)methyl)cyclopentyl)-3-methylurea]	20900 nM
CCN1Cc2ccccc2C(C2CCCC2)(C2CCN(CC3CN(c4ccc(S(=O)(=O)C5CC5)cc4C)C3)CC2)C1 (stereo not shown) [compound 96, 4-cyclopentyl-4-(1-((1-(4-(cyclopropylsulfonyl)-2-methylphenyl)azetidin-3-yl)methyl)piperidin-4-yl)-2-ethyl-1,2,3,4-tetrahydroisoquinoline]	587 nM
N#CC(c1ccccc1)(C1CCCC1)C1CCN(CC2CN(c3ccc(S(=O)(=O)c4ccncc4)cc3)C2)CC1 (stereo not shown) [compound 190, 2-cyclopentyl-2-phenyl-2-(1-((1-(4-(pyridin-4-ylsulfonyl)phenyl)azetidin-3-yl)methyl)piperidin-4-yl)acetonitrile]	2000 nM
CNC(=O)O[C@@H]1CCC[C@H]1C(C#N)(c1ccccc1)C1CCN(CC2CN(c3ccc(C(F)(F)F)cc3)C2)CC1 (mixture of isomers) [compound 368, rac-(1R,2S)-2-(cyano(phenyl)(1-((1-(4-(trifluoromethyl)phenyl)azetidin-3-yl)methyl)piperidin-4-yl)methyl)cyclopentyl methylcarbamate]	506 nM
CNC(=O)N[C@@H]1CCC[C@H]1C(CNC(=O)c1cocn1)(c1ccccc1)C1CCN(CC2CN(c3ccc(C#N)cc3)C2)CC1 (mixture of isomers) [compound 379, rac-N-(2-(1-((1-(4-cyanophenyl)azetidin-3-yl)methyl)piperidin-4-yl)-2-((1S,2R)-2-(3-methylureido)cyclopentyl)-2-phenylethyl)oxazole-4-carboxamide]	3800 nM
CC(C)C(=O)O[C@@H]1CCC[C@H]1C(C#N)(c1ccccc1)C1CCN(CC2CN(c3ccc(S(=O)(=O)c4ccncc4)cc3)C2)CC1 (mixture of isomers) [compound 194, rac-(1R,2S)-2-(cyano(phenyl)(1-((1-(4-(pyridin-4-ylsulfonyl)phenyl)azetidin-3-yl)methyl)piperidin-4-yl)methyl)cyclopentyl isobutyrate]	165000 nM
N#Cc1cc2ccc(C(=O)N[C@H]3CC[C@H](C4(C5CCCC5)NCCc5ccccc54)CC3)cc2[nH]1 (stereo partly shown) [compound 81, 2-cyano-N-((1r,4r)-4-(1-cyclopentyl-1,2,3,4-tetrahydroisoquinolin-1-yl)cyclohexyl)-1H-indole-6-carboxamide]	1900 nM
CC(=O)N[C@H]1CCC[C@@H]1C(C#N)(c1ccccc1)C1CCN(CC2CN(c3ccc(C#N)cc3)C2)CC1 (mixture of isomers) [compound 382, rac-N-((1S,2R)-2-(cyano(1-((1-(4-cyanophenyl)azetidin-3-yl)methyl)piperidin-4-yl)(phenyl)methyl)cyclopentyl)acetamide]	102 nM
CNC(=O)O[C@@H]1CCC[C@H]1C(C#N)(c1ccccc1)C1CCN(CC2CN(c3ccc(S(=O)(=O)c4cnn(C)c4)cc3)C2)CC1 (mixture of isomers) [compound 241, rac-(1R,2S)-2-(cyano(1-((1-(4-((1-methyl-1H-pyrazol-4-yl)sulfonyl)phenyl)azetidin-3-yl)methyl)piperidin-4-yl)(phenyl)methyl)cyclopentyl methylcarbamate]	849 nM
N#CC(c1ccccc1)(C1CCN(CC2CN(c3ccc(S(=O)(=O)c4ccncc4)cc3)C2)CC1)[C@H]1CCC[C@@H]1OC(=O)C1CCC1 (mixture of isomers) [compound 209, rac-(1S,2R)-2-(cyano(phenyl)(1-((1-(4-(pyridin-ylsulfonyl)phenyl)azetidin-3-yl)methyl)piperidin-4-yl)methyl)cyclopentyl cyclobutanecarboxylate]	111 nM
CNC(=O)O[C@@H]1CCC[C@H]1C(C#N)(c1ccccc1)C1CCN(C2CCN(c3ccc(S(=O)(=O)c4ccccc4)cc3)CC2)CC1 (mixture of isomers) [compound 235, rac-(1R,2S)-2-(cyano(phenyl)(1′-(4-(phenylsulfonyl)phenyl)-[1,4′-bipiperidin]-4-yl)methyl)cyclopentyl methylcarbamate]	6200 nM
O=S(=O)(c1ccc(N2CC(CN3CCC(C4(C5CCCC5)NCCc5ccccc54)CC3)C2)cc1)C1CCOCC1 (stereo not shown) [compound 97, 1-cyclopentyl-1-(1-((1-(4-((tetrahydro-2H-pyran-4-yl)sulfonyl)phenyl)azetidin-3-yl)methyl)piperidin-4-yl)-1,2,3,4-tetrahydroisoquinoline]	49 nM
